# Data reported in article PMC8117066 (Behavioural brain research, 2021).
# Substitutions are numbered along the chain they refer to. Names may count otherwise.
# B1: Dopamine transporter (DAT) (Mus musculus) (protein)
# chain: MSKSKCSVGPMSSVVAPAKEPNAVGPREVELILVKEQNGVQLTNSTLINPPQTPVEVQERETWSKKIDFLLSVIGFAVDLANVWRFPYLCYKNGGGAFLVPYLLFMVIAGMPLFYMELALGQFNREGAAGVWKICPVLKGVGFTVILISFYVGFFYNVIIAWALHYFFSSFTMDLPWIHCNNTWNSPNCSDAHSSNSSDGLGLNDTFGTTPAAEYFERGVLHLHQSRGIDDLGPPRWQLTACLVLVIVLLYFSLWKGVKTSGKVVWITATMPYVVLTALLLRGVTLPGAMDGIRAYLSVDFYRLCEASVWIDAATQVCFSLGVGFGVLIAFSSYNKFTNNCYRDAIITTSINSLTSFSSGFVVFSFLGYMAQKHNVPIRDVATDGPGLIFIIYPEAIATLPLSSAWAAVFFLMLLTLGIDSAMGGMESVITGLVDEFQLLHRHRELFTLGIVLATFLLSLFCVTNGGIYVFTLLDHFAAGTSILFGVLIEAIGVAWFYGVQQFSDDIKQMTGQRPNLYWRLCWKLVSPCFLLYVVVVSIVTFRPPHYGAYIFPDWANALGWIIATSSMAMVPIYATYKFCSLPGSFREKLAYAITPEKDRQLVDRGEVRQFTLRHWLLV
# B2: Dopamine transporter (DAT) (Mus musculus; T53A) (protein)
# chain: B1 chain with T53A
# Key:
# [1] = target: Dopamine transporter (DAT) (Mus musculus, UniProt Q61327); test: inhibition of [3H]DA uptake in mouse striatal synaptosomes; format: biochemical
# [2] = target: Dopamine transporter (DAT) (Mus musculus, UniProt Q61327, T53A); test: as above; format: biochemical
# [3H]DA uptake kinetics = substrate: NCCc1ccc(O)c(O)c1; test: [3H]DA uptake kinetics; format: biochemical, Mus musculus
# Dopamine transporter (DAT) (Mus musculus, UniProt Q61327, T53A), sequence (Q61327 whole entry T53A): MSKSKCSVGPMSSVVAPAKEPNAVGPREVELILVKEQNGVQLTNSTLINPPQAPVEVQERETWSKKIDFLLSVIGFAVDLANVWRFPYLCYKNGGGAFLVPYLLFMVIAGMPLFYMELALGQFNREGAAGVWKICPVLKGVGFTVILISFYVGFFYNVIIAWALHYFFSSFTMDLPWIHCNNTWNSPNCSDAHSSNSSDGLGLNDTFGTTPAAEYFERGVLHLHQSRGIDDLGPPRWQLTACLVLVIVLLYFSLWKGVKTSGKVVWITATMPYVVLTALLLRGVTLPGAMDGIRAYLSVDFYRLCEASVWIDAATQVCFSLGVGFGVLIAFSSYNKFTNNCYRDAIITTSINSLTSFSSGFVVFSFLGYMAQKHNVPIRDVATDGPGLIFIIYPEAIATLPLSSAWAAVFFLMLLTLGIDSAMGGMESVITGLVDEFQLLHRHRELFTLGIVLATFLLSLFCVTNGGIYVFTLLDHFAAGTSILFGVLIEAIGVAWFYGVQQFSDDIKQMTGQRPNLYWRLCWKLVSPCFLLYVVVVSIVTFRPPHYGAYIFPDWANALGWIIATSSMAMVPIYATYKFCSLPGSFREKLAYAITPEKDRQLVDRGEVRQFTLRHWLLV
Molecule,IC50 [1] [nM],IC50 [2] [nM],Km ([3H]DA uptake kinetics) [µM]
CN[C@@H](C)Cc1ccccc1 [METH],280 ± 40,262 ± 25,–
CC(N)Cc1ccccc1 (centres unmarked) [amphetamine],183 ± 23,198 ± 68,–
COC(=O)[C@H]1[C@@H](OC(=O)c2ccccc2)C[C@@H]2CC[C@H]1N2C [cocaine],268 ± 58,1270 ± 348,–
B1,–,–,0.0778 ± 0.003009
B2,–,–,0.07117 ± 0.006766
